In patent publication US6586368B1, “Condensed heterocylic compounds and herbicides containing them” (Sumitomo Chemical Company, Limited, priority 1998, dated 2003):

Key:
Format in all cases: in vivo
[1] = tested on: velvetleaf (Abutilon theophrasti); assay: Test Example 1: foliage treatment of velvetleaf in pots, herbicidal activity; settings: emulsifiable concentrate sprayed over the foliage, dosage of 2000 g/ha, 1000 liters per hectare, plants 14 days after seeding, examined after 8 days in greenhouse
[2] = tested on: velvetleaf (Abutilon theophrasti); assay: Test Example 3: soil surface treatment, velvetleaf seeded in pots, herbicidal activity; settings: emulsifiable concentrate sprayed over the surface of the soil after seeding, dosage of 2000 g/ha, 1000 liters per hectare, examined after 9 days in greenhouse
[3] = tested on: barnyardgrass (Echinochloa oryzicola); assay: Test Example 4: flooded paddy field treatment of barnyardgrass in pots, herbicidal activity; settings: emulsifiable concentrate applied on the water surface of flooded pots, dosage of 1000 g/ha, 50 liters per are, plants 12 days after seeding, examined after 9 days in greenhouse

Row | Compound | herbicidal activity: growth of velvetleaf [1] | herbicidal activity: germination of velvetleaf [2] | herbicidal activity: growth of barnyardgrass [3]
1 | CC(=O)N(C)c1ccc2occ(-n3c(=O)cc(C(F)(F)F)n(C)c3=O)c2c1 [Compound 1-28] | completely inhibited the growth | completely inhibited the germination | 
2 | O=C1C2=C(CCCC2)C(=O)N1c1noc2ccccc12 [Compound 2-4] | completely inhibited the growth |  | 
3 | CNc1ccc2occ(-n3c(=O)cc(C(F)(F)F)n(C)c3=O)c2c1 [Compound 1-8] | completely inhibited the growth | completely inhibited the germination | completely inhibited the growth
4 | Cn1c(C(F)(F)F)cc(=O)n(-c2csc3cc(Cl)ccc23)c1=O [Compound 1-864] |  |  | completely inhibited the growth
5 | CSc1cc2c(-n3c(=O)cc(C(F)(F)F)n(C)c3=O)coc2cc1[N+](=O)[O-] [Compound 1-201, 1-Methyl-3-[5-(methylthio)-6-nitrobenzo[b]furan-3-yl]-6-(trifluoromethyl)-1,2,3,4-tetrahydropyrimidine-2,4-dione] | completely inhibited the growth | completely inhibited the germination | completely inhibited the growth
6 | CCOC(=O)C(C)Oc1ccc2occ(-n3c(=O)cc(C(F)(F)F)n(C)c3=O)c2c1 (stereo not drawn) [Compound 1-127, Ethyl 2-({3-[3-methyl-2,6-dioxo-4-(trifluoromethyl)-1,2,3,6-tetrahydropyrimidin-1-yl]benzo[b]furan-5-yl}oxy)propanoate] | completely inhibited the growth | completely inhibited the germination | completely inhibited the growth
7 | CCOC(=O)C(C)Oc1cc2c(-n3c(=O)cc(C(F)(F)F)n(C)c3=O)coc2cc1Cl (stereo not drawn) [Compound 1-129, Ethyl 2-({6-chloro-3-[3-methyl-2,6-dioxo-4-(trifluoromethyl)-1,2,3,6-tetrahydropyrimidin-1-yl]benzo[b]furan-5-yl}oxy)propanoate] | completely inhibited the growth | completely inhibited the germination | completely inhibited the growth
8 | Cc1cc2c(-n3c(=O)cc(C(F)(F)F)n(C)c3=O)coc2cc1[N+](=O)[O-] [Compound 1-361] | completely inhibited the growth | completely inhibited the germination | completely inhibited the growth
9 | Cn1c(C(F)(F)F)cc(=O)n(-c2coc3ccc(C(N)=O)cc23)c1=O [Compound 1-293] | completely inhibited the growth | completely inhibited the germination | completely inhibited the growth
10 | CCOC(=O)C=Cc1cc(Cl)c2occ(-n3c(=O)cc(C(F)(F)F)n(C)c3=O)c2c1 [Compound 1-378] | completely inhibited the growth | completely inhibited the germination | completely inhibited the growth
11 | COC(=O)c1ccc2occ(-n3c(=O)cc(C(F)(F)F)n(C)c3=O)c2c1 [Compound 1-303, Methyl 3-[3-methyl-2,6-dioxo-4-(trifluoromethyl)-1,2,3,6-tetrahydropyrimidin-1-yl]benzo[b]furan-5-carboxylate] | completely inhibited the growth | completely inhibited the germination | completely inhibited the growth
12 | Cn1c(C(F)(F)F)cc(=O)n(-c2coc3cc(Cl)ccc23)c1=O [Compound 1-861] | completely inhibited the growth | completely inhibited the germination | completely inhibited the growth
13 | CCOC(=O)C(C)Nc1ccc2occ(-n3c(=O)cc(C(F)(F)F)n(C)c3=O)c2c1 (stereo not drawn) [Compound 1-11] | completely inhibited the growth | completely inhibited the germination | completely inhibited the growth
14 | Cn1c(C(F)(F)F)cc(=O)n(-c2coc3cc([N+](=O)[O-])c(O)cc23)c1=O [Compound 1-82] | completely inhibited the growth | completely inhibited the germination | completely inhibited the growth
15 | Cn1c(C(F)(F)F)cc(=O)n(-c2coc3c(Cl)cc(Cl)cc23)c1=O [Compound 1-2, 3-(5,7-Dichlorobenzo[b]furan-3-yl)-1-methyl-6-(trifluoromethyl)-1,2,3,4-tetrahydropyrimidine-2,4-dione] | completely inhibited the growth | completely inhibited the germination | completely inhibited the growth
16 | Cn1c(C(F)(F)F)cc(=O)n(-c2coc3cc([N+](=O)[O-])ccc23)c1=O [Compound 1-282] | completely inhibited the growth | completely inhibited the germination | completely inhibited the growth
17 | CN(C)c1ccc2occ(-n3c(=O)cc(C(F)(F)F)n(C)c3=O)c2c1 [Compound 1-9] | completely inhibited the growth | completely inhibited the germination | completely inhibited the growth
18 | COc1ccc2occ(-n3c(=O)cc(C(F)(F)F)n(C)c3=O)c2c1 [Compound 1-5, 3-(5-Methoxybenzo[b]furan-3-yl)-1-methyl-6-(trifluoromethyl)-1,2,3,4-tetrahydropyrimidine-2,4-dione] | completely inhibited the growth | completely inhibited the germination | completely inhibited the growth
19 | Cn1c(C(F)(F)F)cc(=O)n(-c2coc3ccc(NS(C)(=O)=O)cc23)c1=O [Compound 1-10] | completely inhibited the growth | completely inhibited the germination | completely inhibited the growth
20 | CCOC(=O)C(C)Sc1cc2c(-n3c(=O)cc(C(F)(F)F)n(C)c3=O)coc2cc1[N+](=O)[O-] (stereo not drawn) [Compound 1-246, Ethyl 2-({3-[3-methyl-2,6-dioxo-4-(trifluoromethyl)-1,2,3,6-tetrahydropyrimidin-1-yl]-6-nitrobenzo[b]furan-5-yl}thio)propanoate] | completely inhibited the growth | completely inhibited the germination | completely inhibited the growth
21 | CC(=O)Nc1ccc2occ(-n3c(=O)cc(C(F)(F)F)n(C)c3=O)c2c1 [Compound 1-24] | completely inhibited the growth | completely inhibited the germination | 
